Assay results from article PMC6326797 (Nucleic Acids Research, 2018).

Target: T1, RNase L (Homo sapiens, UniProt Q05823)
T1 sequence (Q05823 1-741): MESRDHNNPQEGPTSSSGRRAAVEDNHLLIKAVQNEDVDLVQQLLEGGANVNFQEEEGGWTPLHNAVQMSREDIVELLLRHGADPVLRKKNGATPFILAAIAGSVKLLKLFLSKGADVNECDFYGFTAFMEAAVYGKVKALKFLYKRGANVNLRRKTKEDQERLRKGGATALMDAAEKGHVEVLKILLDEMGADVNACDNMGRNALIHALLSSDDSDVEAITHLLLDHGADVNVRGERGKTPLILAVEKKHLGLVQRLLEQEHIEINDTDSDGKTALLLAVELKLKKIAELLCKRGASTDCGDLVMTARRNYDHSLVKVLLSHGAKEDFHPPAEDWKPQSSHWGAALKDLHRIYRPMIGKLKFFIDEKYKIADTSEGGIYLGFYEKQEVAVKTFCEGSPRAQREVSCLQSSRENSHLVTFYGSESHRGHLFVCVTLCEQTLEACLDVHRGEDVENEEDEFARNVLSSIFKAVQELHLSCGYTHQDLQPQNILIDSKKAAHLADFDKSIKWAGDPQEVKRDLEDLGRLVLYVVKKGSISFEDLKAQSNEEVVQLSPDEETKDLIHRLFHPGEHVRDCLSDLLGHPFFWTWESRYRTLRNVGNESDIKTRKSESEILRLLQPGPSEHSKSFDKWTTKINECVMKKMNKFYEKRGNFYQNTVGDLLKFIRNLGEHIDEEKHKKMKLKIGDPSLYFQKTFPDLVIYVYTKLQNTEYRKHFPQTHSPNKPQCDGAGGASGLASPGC
Experiment: FRET RNA cleavage assay
Format: biochemical

Which IC50 does the source give for `COc1cc(/C=C/C(=O)CC(=O)/C=C/c2ccc(O)c(OC)c2)ccc1O` [curcumin] here?
The IC50 was about 30 µM.
